Measurements from ChEMBL document CHEMBL3045712, “Insect antifeedant and growth regulating activities of salannobutyrolactone and desacetylsalannobutyrolactone” (2005).

Tests used:
Format in all cases: functional
[1] = test system: Spodoptera litura; test: Insecticidal activity against third-instar larval stage of Spodoptera litura fed on compound-treated castor leaves assessed as pupal mortality at 5 ug/cm2 (reference value: 4.17%)
[2] = test system: Spodoptera litura; test: Insecticidal activity against third-instar larval stage of Spodoptera litura fed on compound-treated castor leaves assessed as pupal mortality at 10 ug/cm2 (reference value: 4.17%)
[3] = test system: Spodoptera litura; test: Insecticidal activity against third-instar larval stage of Spodoptera litura fed on compound-treated castor leaves assessed as pupal duration time at 5 ug/cm2 (reference value: 8.1 +/- 0.14 days)
[4] = test system: Spodoptera litura; test: Insecticidal activity against third-instar larval stage of Spodoptera litura fed on compound-treated castor leaves assessed as pupal duration time at 10 ug/cm2 (reference value: 8.1 +/- 0.14 days)
[5] = test system: Spodoptera litura; test: Insecticidal activity against third-instar larval stage of Spodoptera litura fed on compound-treated castor leaves assessed as larval mortality at 5 ug/cm2 (reference value: 4%)
[6] = test system: Spodoptera litura; test: Insecticidal activity against third-instar larval stage of Spodoptera litura fed on compound-treated castor leaves assessed as larval mortality at 10 ug/cm2 (reference value: 4%)
[7] = test system: Spodoptera litura; test: Insecticidal activity against third-instar larval stage of Spodoptera litura fed on compound-treated castor leaves assessed as total larval duration time at 5 ug/cm2 (reference value: 12.7 +/- 0.89 days)
[8] = test system: Spodoptera litura; test: Insecticidal activity against third-instar larval stage of Spodoptera litura fed on compound-treated castor leaves assessed as total larval duration time at 10 ug/cm2 (reference value: 12.7 +/- 0.89 days)
[9] = test system: Spodoptera litura; test: Antifeedant activity against third-instar larval stage of Spodoptera litura fed on compound-treated castor leaves assessed as feeding deterrence index at 5 ug/cm2 by dual choice leaf disc method
[10] = test system: Spodoptera litura; test: Antifeedant activity against third-instar larval stage of Spodoptera litura fed on compound-treated castor leaves assessed as feeding deterrence index at 10 ug/cm2 by dual choice leaf disc method

For `C/C=C(\C)C(=O)O[C@H]1C[C@@H](OC(C)=O)[C@@]2(C)CO[C@H]3[C@H]4O[C@@H]5C[C@@H](C6=CCOC6=O)C(C)=C5[C@@]4(C)[C@H](CC(=O)OC)[C@]1(C)[C@@H]32` [SALANNOBUTYROLACTONE], the mortality at 5 µg/cm2 [1] was 30.2%, the mortality at 10 µg/cm2 [2] was 37.2% and the Time [3] was 8.7 days. For the same molecule, the Time [4] was 9.4 days, the mortality at 5 µg/cm2 [5] was 32% and the mortality at 10 µg/cm2 [6] was 52%. It also gave a Time [7] of 14 days, a Time [8] of 15.5 days and an FDI [9] of 39.34%. For the same molecule, the FDI [10] was 36.69%.

`C/C=C(\C)C(=O)O[C@H]1C[C@@H](O)[C@@]2(C)CO[C@H]3[C@H]4O[C@@H]5C[C@@H](C6=CCOC6=O)C(C)=C5[C@@]4(C)[C@H](CC(=O)OC)[C@]1(C)[C@@H]32` [DESACETYLSALANNOBUTYROLACTONE] gave a mortality at 5 µg/cm2 [1] of 27.3%, a mortality at 10 µg/cm2 [2] of 33.3% and a Time [3] of 8.41 days. For the same molecule, the Time [4] was 8.6 days, the mortality at 5 µg/cm2 [5] was 24% and the mortality at 10 µg/cm2 [6] was 40%. It also gave a Time [7] of 13.1 days, a Time [8] of 14.4 days and an FDI [9] of 50.45%. For the same molecule, the FDI [10] was 47.97%.

Molecule `C/C=C(\C)C(=O)O[C@H]1C[C@@H](OC(C)=O)[C@@]2(C(=O)OC)CO[C@H]3[C@@H](O)[C@@](C)([C@]45O[C@@]4(C)[C@@H]4C[C@H]5O[C@@H]5OC=C[C@@]54O)[C@H]4[C@]1(CO[C@]4(O)C(=O)OC)[C@@H]32` [AZADIRACHTIN A] has a mortality at 5 µg/cm2 [1] of 33.2%, a mortality at 10 µg/cm2 [2] of 40% and a Time [3] of 9.8 days. It also gave a Time [4] of 10.14 days, a mortality at 10 µg/cm2 [6] of 64% and a Time [7] of 15 days. The Time [8] was 16.3 days, the FDI [9] was 15.62% and the FDI [10] was 12.59%.
